Reference: patent US12593846B2, “Combinations of triazolone herbicides with safeners” (priority 2020, dated 2026)

Tests used:
Assay type in all cases: in vivo
[1] = test system: Brachiaria decumbens; assay: % weed control in soybean crop, spray application to soil; parameters: concentration or dose not given beside the values; details: average of 4 replications; for % Weed Control 7 DAA: 7 days after administration; for % Weed Control 14 DAA: 14 days after administration; for % Weed Control 21 DAA: 21 days after administration; for % Weed Control 28 DAA: 28 days after administration; for % Weed Control 35 DAA: 35 days after administration
Description: (§1) Below table gives summary of the formulation details and application details of Sulfentrazone and Mefenpyr-diethyl, Isoxadifen-ethyl and Cloquintocet-mexyl that were used in combination with Sulfentrazone for treatments. Application method was spray and applications were made to soil.
(§2) Below table gives summary of the formulation details and application details of Sulfentrazone and Dichlormid, Fenclorim, Benoxacor, Flurazole and Fluxofenim that were used in combination with Sulfentrazone for treatments. Application method was spray and applications were made to soil.
Below table gives summary of % weed control shown in soybean crop by untreated check, Sulfentrazone alone and combination of Sulfentrazone with Mefenpyr-diethyl, Isoxadifen-ethyl and Cloquintocet-mexyl at different application rates. % weed control was checked for weed Brachiaria decumbens.
Below table gives summary of % weed control in soybean crop shown by untreated check, Sulfentrazone alone and combination of Sulfentrazone with Dichlormid, Fenclorim, Benoxacor, Flurazole and Fluxofenim at different application rates. % weed control was checked for weed Brachiaria decumbens.

[2] = test system: soybean plants; assay: Number of soybean plants standing after herbicidal treatment; details: average of 4 replications; for Number of plants standing 14 DAA: 14 days after administration; for Number of plants standing 28 DAA: 28 days after administration
Experimental: (§3) Experiments were carried out to evaluate the phytotoxicity, effect on plant height and effect on number of plants standing after treatments with combinations of one or more triazolone herbicides with one or more safeners.
as §1, §2
Below table gives summary of effect on number of soybean plants standing after herbicidal treatment shown by untreated check, Sulfentrazone alone and combination of Sulfentrazone with Mefenpyr-diethyl, Isoxadifen-ethyl and Cloquintocet-mexyl at different application rates.
Below table gives summary of effect on number of soybean plants standing after herbicidal treatment shown by untreated check, Sulfentrazone alone and combination of Sulfentrazone with Dichlormid, Fenclorim, Benoxacor, Flurazole and Fluxofenim at different application rates.

[3] = test system: soybean plant; assay: Effect on plant height of soybean plant; details: average of 4 replications; for Plant height 14 DAA: 14 days after administration; for Plant height 28 DAA: 28 days after administration
Experimental: as §3, §1, §2
Below table gives summary of effect on plant height of soybean plant shown by untreated check, Sulfentrazone alone and combination of Sulfentrazone with Mefenpyr-diethyl, Isoxadifen-ethyl and Cloquintocet-mexyl at different application rates.
Below table gives summary of effect on plant height of soybean plant shown by untreated check, Sulfentrazone alone and combination of Sulfentrazone with Dichlormid, Fenclorim, Benoxacor, Flurazole and Fluxofenim at different application rates.

[4] = treatments 1-8 (rates in Table 1)
[5] = treatments 9-20 (rates in Table 2)

Compound | % Weed Control 7 DAA [1, 4] [%] | % Weed Control 14 DAA [1, 4] [%] | % Weed Control 21 DAA [1, 4] [%] | % Weed Control 28 DAA [1, 4] [%] | % Weed Control 35 DAA [1, 4] [%] | Number of plants standing 14 DAA [2, 4] | Number of plants standing 28 DAA [2, 4] | Plant height 14 DAA [3, 4] | Plant height 28 DAA [3, 4] | % Weed Control 7 DAA [1, 5] [%] | % Weed Control 14 DAA [1, 5] [%] | % Weed Control 21 DAA [1, 5] [%] | % Weed Control 28 DAA [1, 5] [%] | % Weed Control 35 DAA [1, 5] [%] | Number of plants standing 14 DAA [2, 5] | Number of plants standing 28 DAA [2, 5] | Plant height 14 DAA [3, 5] | Plant height 28 DAA [3, 5]
Cc1nn(-c2cc(NS(C)(=O)=O)c(Cl)cc2Cl)c(=O)n1C(F)F [Treatment 2] | 100 | 100 | 100 | 100 | 100 | 5.3 | 4.5 | 2.90 | 5.15 | – | – | – | – | – | – | – | – | –
Cc1nn(-c2cc(NS(C)(=O)=O)c(Cl)cc2Cl)c(=O)n1C(F)F [Treatment 10] | – | – | – | – | – | – | – | – | – | 100 | 100 | 100 | 100 | 100 | 5.3 | 5.3 | 6.65 | 10.90
